Values of other authors, collected in patent US20080286208A1, “Eye treatment” (priority 2001, published 2008).
“Also recorded” adds a separate entry of the source. Like-named read-outs stand apart in the source and are kept apart here.

System: eye
Conditions: for Stinging when applied to the eye: applied to the eye in suitable dosage

Stinging when applied to the eye (listed as Rose bengal) | SMILES | Stinging when applied to the eye | Toxicity to the eye (post instillation)
– | CN(C)c1ccc(C(=C2C=CC(=[N+](C)C)C=C2)c2c(O)c(S(=O)(=O)[O-])cc3cc(S(=O)(=O)[O-])ccc23)cc1.[Na+] [Lissamine green] | without the disadvantages of toxicity and sting potential; also recorded: does not induce stinging; also recorded: does not significantly sting | –
has a sting potential | O=C([O-])c1c(Cl)c(Cl)c(Cl)c(Cl)c1-c1c2cc(I)c(=O)c(I)c-2oc2c(I)c([O-])c(I)cc12.[Na+].[Na+] [rose bengal] | may result in stinging and pain to an extent that can be disabling for hours post instillation; also recorded: may produce dose related stinging; also recorded: has been found to sting | known to be toxic
